This is an account of results in patent US20140179773A1, “METHOD FOR THE TREATMENT OF HEART RELATED DISORDERS IN NAFLD PATIENTS” (INSTITUTO BIOCHIMICO ITALIANO GIOVANNI LORENZINI S.P.A., priority 2012, published 2014).

Common to all, as to type: in vivo
The test system of series [1] is db/db mice fed a methionine-choline deficient (MCD) diet. The series is described as follows: Biometric and serum biochemical parameters in db/db mice fed MCD diet. The text has this: This study is aimed at assessing the efficacy of silibinin both on liver and heart injury in NAFLD and at identifying the related molecular events. In order to investigate this issue, we used db/db mice fed a methionine-choline deficient (MCD) diet, a model combining the features of the metabolic syndrome with the histological pattern of NASH [23,24]. In fact, db/db mice fed an MCD diet do partially conserve increased visceral adiposity and an insulin resistant phenotype, while developing hepatocellular injury.
(§1) All procedures fulfilled the Italian Guidelines for the Use and Care of Laboratory Animals. Six-week-old male BKS.Cg-m+/+ Leprdb/J (db/db) obese mice and six-week-old male heterozygous db/m lean control mice were purchased. Animals were maintained in a temperature and light-controlled facility and permitted ad libitum consumption of water; after two week of acclimation, db/db mice were fed a MCD diet for 4 weeks, whereas db/m mice were fed a MCD diet supplemented with methionine and choline, i.e. a standard diet (SD), for the same period. Silibinin was dissolved in saline (vehicle) and daily administered intraperitoneally at a dosage of 20 mg/kg of body weight. Mice were distributed in 3 groups: group I included 6 db/m mice fed a control diet and treated with vehicle (db/m+SD); group II comprised 6 db/db mice fed a MCD diet and treated with vehicle (db/db+MCD); group III included 6 db/db mice fed a MCD diet and treated with silibinin (db/db+MCD+silibinin). Treatment was administered for a 4-week period; at the end of it, animals were sacrificed after an overnight fast. Blood, liver and heart samples were obtained and stored at −80° C. for further analysis.
Blood glucose was measured by Accuchek (Roche Diagnostics, Milan, Italy). Serum ALT and serum insulin were determined using a multichannel autoanalyzer. Liver triglycerides content was measured using a serum/tissue triglyceride colorimetric kit (Biovision, Mountain View, Calif.). Liver and heart isoprostanes and 8-hydroxyguanosine (8-OHG) were determined by enzyme-linked immunosorbent assay (ELISA) test; reduced glutathione (GSH) was assessed by a GSH assay. Liver and heart nitrite/nitrates were measured colorimetrically using Griess reagent, following manufacturer's instructions. ELISA kit for TNF-α was used on whole myocardial tissue protein extracts, following manufacturer's instructions.

Series [2] shares this test system. The series can be described thus: Liver triglycerides content (colorimetric kit) in db/db mice fed MCD diet. To be noted: 4 weeks MCD diet, silibinin 20 mg/kg i.p. daily. The text has this:
All procedures fulfilled the Italian Guidelines for the Use and Care of Laboratory Animals. Six-week-old male BKS.Cg-m+/+ Leprdb/J (db/db) obese mice and six-week-old male heterozygous db/m lean control mice were purchased. Animals were maintained in a temperature and light-controlled facility and permitted ad libitum consumption of water; after two week of acclimation, db/db mice were fed a MCD diet for 4 weeks, whereas db/m mice were fed a MCD diet supplemented with methionine and choline, i.e. a standard diet (SD), for the same period. Silibinin was dissolved in saline (vehicle) and daily administered intraperitoneally at a dosage of 20 mg/kg of body weight. […]
Blood glucose was measured by Accuchek (Roche Diagnostics, Milan, Italy). Serum ALT and serum insulin were determined using a multichannel autoanalyzer. Liver triglycerides content was measured using a serum/tissue triglyceride colorimetric kit (Biovision, Mountain View, Calif.). Liver and heart isoprostanes and 8-hydroxyguanosine (8-OHG) were determined by enzyme-linked immunosorbent assay (ELISA) test; reduced glutathione (GSH) was assessed by a GSH assay. Liver and heart nitrite/nitrates were measured colorimetrically using Griess reagent, following manufacturer's instructions. […]

The test system of series [3] is Liver mitochondrial respiratory chain (MRC) complexes I-V. The series is described as follows: Mitochondrial respiratory chain activity assay in liver of treated mice. To be noted: activity relative to db/m + SD group = 100, MCD diet, silibinin 20 mg/kg i.p. daily 4 weeks.
Description: as §1, with “analysis. Mitochondrial respiratory chain (MRC) activities was determined as previously described. Briefly, liver tissues (50-70 mg) were homogenized with 15 vol of 20 mmol/L KP buffer, pH 7.4, and centrifuged at 800×g for 10 min. Respiratory chain enzymes and citrate synthase activities were measured in a DU-650 spectrophotometer. Incubation temperatures were 30° C. for complexes I, II, III, V, and citrate synthase, and 38° C. for complex IV. Enzyme activities were assessed in supernatants, expressed as nanomoles of substrate used per minute per milligram of protein and referred as a percentage of the specific activity of citrate synthase, to adjust for the hepatic content of mitochondria.” for “analysis.”

Setting [4] is: db/db mice, 4 weeks MCD diet, silibinin 20 mg/kg i.p. daily.
The mark [5] stands for this setting: db/db mice, 4 weeks MCD diet, silibinin 20 mg/kg i.p. daily, overnight fast.

Turning to `COc1cc(C2Oc3cc([C@H]4Oc5cc(O)cc(O)c5C(=O)[C@@H]4O)ccc3OC2CO)ccc1O` (stereo partly shown) [silibinin, Silibinin], the “Effect on food intake” value in series [1] (data not shown) is recorded as “did not modify”. In series [1] (setting [4]), the HOMA-IR is on record as 1.7 ± 0.5*, ** and the “Serum ALT” value is given as 180.5 ± 66.5*, ** IU/L. In series [1] (setting [5]), the Blood glucose was 103.7 ± 16.8*, ** mg/dL and the Serum insulin was 6.5 ± 1.1 mU/mL. Also, in series [1] (db/db mice, after 4 weeks MCD diet and silibinin 20 mg/kg i.p. daily), the 12-Weeks weight is 34.8 ± 1.9 g. In addition, the “Decrease of ALT levels” value in series [1] (silibinin-treated vs vehicle db/db fed MCD diet) came out at 3 fold. The Liver triglycerides in series [2] is 8.3 ± 2.4*, ** mg/g protein. Moreover, in series [3], the “Liver MRC complex I” value came to 90.2 ± 5.2, the “Liver MRC complex II” value turned out to be 88.4 ± 4.3, the “Liver MRC complex III” value was determined as 94.4 ± 6.8 and the “Liver MRC complex IV” value turned out to be 96.1 ± 5.2. Moreover, the “Liver MRC complex V” value in series [3] is on record as 94.3 ± 6.2.
